Data as given in patent US11180462B2, “Microbiocidal oxadiazole derivatives” (SYNGENTA PARTICIPATIONS AG, priority 2015, dated 2021).

Key:
Phakopsora Pachyrhizi = assay: Fungicidal activity against Phakopsora pachyrhizi / soybean / leaf disc preventative (Asian soybean rust); type: in vivo; settings: foliar, 200 ppm in the applied formulation, soybean leaf disks, compared to untreated control leaf disks, read-out: disease control
In short: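 Preventative soybean leaf-disc test: discs on water agar sprayed with diluted formulated compound, inoculated one day later with spores on the lower surface. Held 24–36 h dark at 20°C, 75% rh, then 12 h light/day; percent disease control versus untreated discs scored 12–14 days after application.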

[1] = test system: Glomerella lagenarium (Colletotrichum lagenarium); assay: Fungicidal activity against Glomerella lagenarium (Colletotrichum lagenarium) liquid culture / cucumber / preventative (anthracnose); type: cell-based; settings: Colletotrichum orbiculare; 20 ppm in the applied formulation; liquid culture (PDB), growth inhibition measured photometrically after 3 to 4 days; compared to untreated control; read-out: disease control
In short: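 Photometric read-out of fungal growth after 2–7 days, expressed as percent antifungal activity versus untreated check. Cryo-stored conidia in PDB; compound at 20 ppm; dark, 24 °C, 96% RH.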

[2] = test system: Puccinia recondita f. Sp. Tritici; assay: Fungicidal activity against Puccinia recondita f. sp. tritici / wheat / leaf disc preventative (brown rust); type: in vivo; settings: foliar, 200 ppm in the applied formulation, wheat leaf segments, preventative, compared to untreated control leaf disks, read-out: disease control
In short: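 Compound application precedes infection: segments of wheat cv. Kanzler, sprayed at 200 ppm, are inoculated with a spore suspension after 1 day. Incubation is at 19° C. with 75% relative humidity and 12 h light/12 h darkness, and control versus untreated leaves is rated 7 to 9 days post-application.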

[3] = test system: Puccinia recondita f. Sp. Tritici; assay: Fungicidal activity against Puccinia recondita f. sp. tritici / wheat / leaf disc curative (brown rust); type: in vivo; settings: foliar, 24 h, 200 ppm in the applied formulation, wheat leaf segments, curative (applied 1 day after inoculation), compared to untreated control leaf disks, read-out: disease control
In short: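 Segments of wheat cv. Kanzler were laid on agar and inoculated with a spore suspension of the rust, then held in darkness at 19° C and 75% relative humidity. One day later the water-diluted formulated compound was applied, with incubation continued under a 12 h light/dark cycle.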

O=C(c1ccccc1Cl)N(Cc1ccc(-c2noc(C(F)(F)F)n2)cc1)C1COC1 [Compound 1.740, 2-chloro-N-(oxetan-3-yl)-N-[[4-[5-(trifluoromethyl)-1,2,4-oxadiazol-3-yl]phenyl]methyl]-benzamide]
≥ 80%: pest or weed control at 200 ppm (Phakopsora Pachyrhizi) | inhibition of growth at 20 ppm [1] | pest or weed control at 200 ppm [2] | pest or weed control at 200 ppm [3]

COCCN(Cc1ccc(-c2noc(C(F)(F)F)n2)cc1)C(=O)C1OCCO1 [Compound 1.360, N-(2-methoxyethyl)-N-[[4-[5-(trifluoromethyl)-1,2,4-oxadiazol-3-yl]phenyl]methyl]-1,3-dioxolane-2-carboxamide]
≥ 80%: pest or weed control at 200 ppm (Phakopsora Pachyrhizi) | inhibition of growth at 20 ppm [1] | pest or weed control at 200 ppm [2] | pest or weed control at 200 ppm [3]

CCC(C)N(Cc1ccc(-c2noc(C(F)(F)F)n2)cc1)C(C)=O (centres unmarked) [Compound 1.407, N-sec-butyl-N-[[4-[5-(trifluoromethyl)-1,2,4-oxadiazol-3-yl]phenyl]methyl]-acetamide]
≥ 80%: pest or weed control at 200 ppm (Phakopsora Pachyrhizi) | inhibition of growth at 20 ppm [1] | pest or weed control at 200 ppm [2] | pest or weed control at 200 ppm [3]

O=C(CCC(F)(F)F)N(Cc1ccc(-c2noc(C(F)(F)F)n2)cc1)C1CC1 [Compound 1.101, N-cyclopropyl-4,4,4-trifluoro-N-[[4-[5-(trifluoromethyl)-1,2,4-oxadiazol-3-yl]phenyl]methyl]-butanamide]
≥ 80%: pest or weed control at 200 ppm (Phakopsora Pachyrhizi) | inhibition of growth at 20 ppm [1] | pest or weed control at 200 ppm [2] | pest or weed control at 200 ppm [3]

C#CCN(Cc1ccc(-c2noc(C(F)(F)F)n2)cc1)C(=O)CCCOC [Compound 1.196, 4-methoxy-N-prop-2-ynyl-N-[[4-[5-(trifluoromethyl)-1,2,4-oxadiazol-3-yl]phenyl]methyl]-butanamide]
≥ 80%: pest or weed control at 200 ppm (Phakopsora Pachyrhizi) | inhibition of growth at 20 ppm [1] | pest or weed control at 200 ppm [2] | pest or weed control at 200 ppm [3]

COCCC(=O)N(O)Cc1ccc(-c2noc(C(F)(F)F)n2)cc1 [Compound 1.758, N-hydroxy-3-methoxy-N-[[4-[5-(trifluoromethyl)-1,2,4-oxadiazol-3-yl]phenyl]methyl]-propanamide]
≥ 80%: pest or weed control at 200 ppm (Phakopsora Pachyrhizi) | inhibition of growth at 20 ppm [1] | pest or weed control at 200 ppm [2] | pest or weed control at 200 ppm [3]

CN(Cc1ccc(-c2noc(C(F)(F)F)n2)cc1)C(=O)C1CCCO1 (centres unmarked) [Compound 1.528, N-methyl-N-[[4-[5-(trifluoromethyl)-1,2,4-oxadiazol-3-yl]phenyl]methyl]-tetrahydrofuran-2-carboxamide]
≥ 80%: pest or weed control at 200 ppm (Phakopsora Pachyrhizi) | inhibition of growth at 20 ppm [1] | pest or weed control at 200 ppm [2] | pest or weed control at 200 ppm [3]

CCCN(Cc1ccc(-c2noc(C(F)(F)F)n2)cc1)C(=O)CC1CC1 [Compound 1.669, 2-cyclopropyl-N-propyl-N-[[4-[5-(trifluoromethyl)-1,2,4-oxadiazol-3-yl]phenyl]methyl]-acetamide]
≥ 80%: pest or weed control at 200 ppm (Phakopsora Pachyrhizi) | inhibition of growth at 20 ppm [1] | pest or weed control at 200 ppm [2] | pest or weed control at 200 ppm [3]

C=CCN(Cc1ccc(-c2noc(C(F)(F)F)n2)cc1)C(=O)C(C)C [Compound 1.483, N-allyl-2-methyl-N-[[4-[5-(trifluoromethyl)-1,2,4-oxadiazol-3-yl]phenyl]methyl]-propanamide]
≥ 80%: pest or weed control at 200 ppm (Phakopsora Pachyrhizi) | inhibition of growth at 20 ppm [1] | pest or weed control at 200 ppm [2] | pest or weed control at 200 ppm [3]

CCCN(Cc1ccc(-c2noc(C(F)(F)F)n2)cc1)C(=O)C1CC1(F)F (centres unmarked) [Compound 1.652, 2,2-difluoro-N-propyl-N-[[4-[5-(trifluoromethyl)-1,2,4-oxadiazol-3-yl]phenyl]methyl]-cyclopropane-carboxamide]
≥ 80%: pest or weed control at 200 ppm (Phakopsora Pachyrhizi) | inhibition of growth at 20 ppm [1] | pest or weed control at 200 ppm [2] | pest or weed control at 200 ppm [3]

COCCC(=O)N(Cc1ccc(-c2noc(C(F)(F)F)n2)cc1)C1CC1 [Compound 1.106, N-cyclopropyl-3-methoxy-N-[[4-[5-(trifluoromethyl)-1,2,4-oxadiazol-3-yl]phenyl]methyl]-propanamide]
≥ 80%: pest or weed control at 200 ppm (Phakopsora Pachyrhizi) | inhibition of growth at 20 ppm [1] | pest or weed control at 200 ppm [2] | pest or weed control at 200 ppm [3]

CCN(Cc1ccc(-c2noc(C(F)(F)F)n2)cc1)C(=O)C1CCCC1 [Compound 1.495, N-ethyl-N-[[4-[5-(trifluoromethyl)-1,2,4-oxadiazol-3-yl]phenyl]methyl]-cyclopentane-carboxamide]
≥ 80%: pest or weed control at 200 ppm (Phakopsora Pachyrhizi) | inhibition of growth at 20 ppm [1] | pest or weed control at 200 ppm [2] | pest or weed control at 200 ppm [3]

CON(C(=O)C1CC1F)C(C)c1ccc(-c2noc(C(F)(F)F)n2)cc1 (centres unmarked) [Compound 1.275, 2-fluoroN-methoxy-N-[1-[4-[5-(trifluoromethyl)-1,2,4-oxadiazol-3-yl]phenyl]ethyl]-cyclopropane-carboxamide]
≥ 80%: pest or weed control at 200 ppm (Phakopsora Pachyrhizi) | inhibition of growth at 20 ppm [1] | pest or weed control at 200 ppm [2] | pest or weed control at 200 ppm [3]

CCC(=O)N(CC)Cc1ccc(-c2noc(C(F)(F)F)n2)cc1 [Compound 1.497, N-ethyl-N-[[4-[5-(trifluoromethyl)-1,2,4-oxadiazol-3-yl]phenyl]methyl]-propanamide]
≥ 80%: pest or weed control at 200 ppm (Phakopsora Pachyrhizi) | inhibition of growth at 20 ppm [1] | pest or weed control at 200 ppm [2] | pest or weed control at 200 ppm [3]

C#CCCC(=O)N(Cc1ccc(-c2noc(C(F)(F)F)n2)cc1)OC [Compound 1.11, N-methoxy-N-[[4-[5-(trifluoromethyl)-1,2,4-oxadiazol-3-yl]phenyl]methyl]-pent-4-ynamide]
≥ 80%: pest or weed control at 200 ppm (Phakopsora Pachyrhizi) | inhibition of growth at 20 ppm [1] | pest or weed control at 200 ppm [2] | pest or weed control at 200 ppm [3]

O=C(C1CCOC1)N(O)Cc1ccc(-c2noc(C(F)(F)F)n2)cc1 (centres unmarked) [Compound 1.756, N-hydroxy-N-[[4-[5-(trifluoromethyl)-1,2,4-oxadiazol-3-yl]phenyl]methyl]-tetrahydrofuran-3-carboxamide]
≥ 80%: pest or weed control at 200 ppm (Phakopsora Pachyrhizi) | inhibition of growth at 20 ppm [1] | pest or weed control at 200 ppm [2] | pest or weed control at 200 ppm [3]

CON(Cc1ccc(-c2noc(C(F)(F)F)n2)c(F)c1)C(=O)C1CC1 [Compound 1.579, N-[[3-fluoro-4-[5-(trifluoromethyl)-1,2,4-oxadiazol-3-yl]phenyl]methyl]-N-methoxy-cyclopropane-carboxamide]
≥ 80%: pest or weed control at 200 ppm (Phakopsora Pachyrhizi) | inhibition of growth at 20 ppm [1] | pest or weed control at 200 ppm [2] | pest or weed control at 200 ppm [3]

CCC(C)N(Cc1ccc(-c2noc(C(F)(F)F)n2)cc1)C(=O)CCCOC (centres unmarked) [Compound 1.408, 4-methoxy-N-sec-butyl-N-[[4-[5-(trifluoromethyl)-1,2,4-oxadiazol-3-yl]phenyl]methyl]-butanamide]
≥ 80%: pest or weed control at 200 ppm (Phakopsora Pachyrhizi) | inhibition of growth at 20 ppm [1] | pest or weed control at 200 ppm [2] | pest or weed control at 200 ppm [3]

CCC(=O)OCCN(Cc1ccc(-c2noc(C(F)(F)F)n2)cc1)C(=O)CC [Compound 1.590, 2-[propanoyl-[[4-[5-(trifluoromethyl)-1,2,4-oxadiazol-3-yl]phenyl]methyl]-amino]ethyl propanoate]
≥ 80%: pest or weed control at 200 ppm (Phakopsora Pachyrhizi) | inhibition of growth at 20 ppm [1] | pest or weed control at 200 ppm [2] | pest or weed control at 200 ppm [3]

C=CCCC(=O)N(Cc1ccc(-c2noc(C(F)(F)F)n2)cc1)C1CC1 [Compound 1.91, N-cyclopropyl-N-[[4-[5-(trifluoromethyl)-1,2,4-oxadiazol-3-yl]phenyl]methyl]-pent-4-enamide]
≥ 80%: pest or weed control at 200 ppm (Phakopsora Pachyrhizi) | inhibition of growth at 20 ppm [1] | pest or weed control at 200 ppm [2] | pest or weed control at 200 ppm [3]
